# PMC11020070, “Discovery of Protease-Activated Receptor 4 (PAR4)-Tethered Ligand Antagonists Using Ultralarge Virtual Screening” (ACS Pharmacology & Translational Science, 2024)
# Where two headings read alike, the source gives them in different places.
# Legend:
# PAR4 = molecular target: T1, PAR4 (Homo sapiens, UniProt Q96RI0); test: Human platelet activity assay, flow cytometry, γ-thrombin activation; assay type: cell-based; design: endogenous in cells; host or cells: washed human platelets from healthy volunteers
# T1 sequence (Q96RI0 18-385): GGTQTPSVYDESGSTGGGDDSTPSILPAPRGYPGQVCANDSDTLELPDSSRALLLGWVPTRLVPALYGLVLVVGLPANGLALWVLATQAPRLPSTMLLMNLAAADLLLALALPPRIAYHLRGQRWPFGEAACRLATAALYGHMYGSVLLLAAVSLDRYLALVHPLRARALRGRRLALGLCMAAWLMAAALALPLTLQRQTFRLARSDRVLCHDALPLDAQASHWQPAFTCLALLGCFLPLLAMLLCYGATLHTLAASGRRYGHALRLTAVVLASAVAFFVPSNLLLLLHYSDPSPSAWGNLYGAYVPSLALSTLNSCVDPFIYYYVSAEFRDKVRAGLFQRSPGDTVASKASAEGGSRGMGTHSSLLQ
# Procedure: To test the antagonistic effect of the compounds on PAR4, a flow cytometry assay of human platelets was employed. Each compound was screened at 10 μM in human platelets using flow cytometry for GPIIbIIIa activation (PAC1) and P-selectin (CD62p) expression as previously described.[4] Activation of GPIIbIIIa allows interaction with divalent fibrinogen or multivalent von Willebrand factor, leading to platelet aggregation.[41] PAR4 stimulation also triggers α-granule secretion containing P-selectin.[5] […] Platelets were treated with each test compound or vehicle control DMSO before activating with γ-thrombin (100 nM) or PAR4 agonist peptide mimetic (200 μM, “PAR4-AP” AYPGKF) for 30 min. γ-thrombin activates PAR4 but not PAR1.[42]
# Activation of washed human platelets was monitored by flow cytometry for the detection of PAC1 (GPIIbIIIa activation) and CD62p (P-selectin expression) binding as previously described.[4] Human platelets were obtained from healthy volunteers. The Vanderbilt University Internal Review Board approved these studies. Informed consent was obtained from all individuals prior to the blood draw. 10 mL of whole blood was collected into 0.32% Na citrate. Platelet-rich plasma was collected after room-temperature centrifugation at 1100 rpm for 15 min on a Thermo Forma 400 centrifuge (Thermo Fisher, Waltham, MA). 1/10 volume of acid citrate dextrose (ACD) buffer was added to the collected supernatant and incubated for 10 min. After centrifugation at 2400 rpm for 10 min, the platelet pellet was resuspended in 1 mL Tyrode’s buffer (“TBB”: 15 mM HEPES, 0.33 mM NaH2PO4, pH 6.4, 138 mM NaCl, 2.7 mM KCl, 1 mM MgCl2, 5.5 mM dextrose, 0.1% bovine serum albumin). Platelets were collected, counted on a Z1 Coulter Particle Counter (Beckman Coulter, Brea, CA), and diluted in TBB to 1.5 × 10^7 platelets/mL. 60 uL of platelets were aliquoted to each tube and preincubated with 40 μL of TBB with antibodies PAC1 FITC (Becton Dickinson, Franklin Lakes NJ) and P-selectin PE (Becton Dickinson) and either test compound antagonist or DMSO vehicle control for 20 min. Platelets were then activated with 100 nM γ-thrombin or other agonists for 30 min. Samples were then fixed by adding 100 μL of 2% paraformaldehyde. After 30 min, samples were diluted by adding 300 μL of phosphate-buffered saline (PBS) and stored at 4C. Data were collected on a three-laser BD LSRFortessa (Becton Dickinson) and analyzed with FlowJo software (FlowJo LLC, Ashland, OR). The mean fluorescence intensity (geometric) of PE and FITC was determined from 30,000 events after compensation correction. Data were normalized to vehicle (DMSO) controls.
# Compounds were screened for inhibition activity against human PAR4 using 100 nM γ-thrombin or 200 μM PAR4-AP in a single-point assay (10 μM test compound).
# [1] = Buffer-only incubation (KPI or Tyrode's HP buffer), compound stability; assay type: physicochemical; details: potassium phosphate (KPI) or Tyrode's buffer (HP), no microsomes
# Source text: Mammalian liver microsomes include CYPs, flavin monooxygenases (FMOs), glucuronosyltransferases ([…]), and esterases as part of their enzyme composition. In the presence of NADPH, which serves as a cofactor for CYP- and FMO-dependent reactions, the observed activity can be attributed to these enzymes. Similarly, UGTs require the cofactor uridine diphosphate glucuronic acid (UDPGA). Therefore, when NADPH and UDPGA are absent, any reduction in the compound can be ascribed only to esterase activity or chemical instability. […] This is based on two factors: (1) the stability of the compounds in HP buffer, which is used in the platelet assays, and (2) the low probability of drug metabolism occurring within the platelets themselves. Together, these minimize the chance that any metabolites with distinct PAR4 potencies could confound the results. By comparing the area under the curve of the compound metabolized from the microsomal incubations in the presence or absence of NADPH to the corresponding area under the curve of the buffer-only incubation, the percent contribution of CYPs and FMOs and esterases were estimated (Table S1). The major contributing enzyme toward the metabolism of 12 is esterases in both the human (96%) and mouse (98%). In contrast, the metabolism of 31 was primarily driven by CYPs and FMOs in both HLM (80%) and MLM (88%).
# Supplem ental Fig ure S5 . Depletion of 12 over time in the presence (ν) or absence (λ) of NADPH. Incubations w e re carried out in the presence of human (A) or mouse (B) li ver microsomes or without microsomes but in either KPI (C) or HP (D) buffer. […] Error bars smaller than the symbols a re not visible. […]
# Supplem ental Figure S6. […] Values a re expressed as percentage of compound remaining at ea ch time compared with time 0 min and represent the mean ± SD (n = 3). […]
# Supplem ental Fig ure S7 . […] Values a re expressed as percentage of compound remaining at ea ch time co mpa red with time 0 min and represent the mean ± SD (n = 3). […]
# [2] = human platelets, 100 nM γ-thrombin, GPIIbIIIa activation (PAC1), read-out: Human Platelets PAC1 IC50
# [3] = human platelets, 100 nM γ-thrombin, P-selectin (CD62p), read-out: Human Platelets P-Sel IC50
# [4] = Table 4 summary, read-out: human PAR4 IC50
IC50 (PAR4; [2]) [nM],IC50 (PAR4; [3]) [nM],IC50 (PAR4; [4]) [nM],loss of compound over time in buffer only [1],SMILES,"inhibition at 10 µM (PAR4; 10 μM compound, 100 nM γ-thrombin, human platelets, read-out: inhibition of platelet activation against γ-thrombin) [%]","IC50 (PAR4; γ-thrombin activation of PAR4, human platelets, read-out: IC50, concentration-response curve (CRC)) [nM]"
583,629,583,,Cc1cc(C(=O)Nc2n[nH]c(OC(F)F)n2)nn1-c1ccccc1 [Compound 9],,
134,150,134,little loss of compound over time,Cn1nc(C(=O)Nc2n[nH]c(-c3c(F)cccc3F)n2)cc1C1CC1 [Compound 12],,
502,599,502,little loss of compound over time,O=C(Nc1nc[nH]n1)c1nn(-c2ccccc2)c2c1CCC2 [Compound 17],,
117,135,,little loss of compound over time,O=C(Nc1n[nH]c(-c2ccc(F)cc2F)n1)c1nn(-c2ccccc2)c2c1CCCC2 [Compound 31],,
120,178,120,,COc1cccc(-c2nc(NC(=O)c3nn(-c4ccccc4)c4c3CCCC4)n[nH]2)c1 [Compound 32],,

SMILES,IC50 (PAR4; [2]) [nM],IC50 (PAR4; [3]) [nM],IC50 (PAR4; [4]) [nM],loss of compound over time in buffer only [1],"inhibition at 10 µM (PAR4; 10 μM compound, 100 nM γ-thrombin, human platelets, read-out: inhibition of platelet activation against γ-thrombin) [%]","IC50 (PAR4; γ-thrombin activation of PAR4, human platelets, read-out: IC50, concentration-response curve (CRC)) [nM]"
Cc1nc(NC(=O)c2cc(-c3ccccc3)n(-c3ccccc3)n2)n[nH]1 [Compound 7],2280,2730,,,~50,2300
